Results as given in patent US20230357314A1, “METHODS FOR ULTRAFAST FORMATION OF DISULFIDE BONDS IN PEPTIDES AND PROTEINS” (TECHNION RESEARCH & DEVELOPMENT FOUNDATION LIMITED, priority 2020, published 2023).
≈ marks a conversion by molar mass, not a printed value. Like-named read-outs stand apart in the source and are kept apart here. Positions of bridges follow the written chain, without caps; N, C: chain ends. Residues, ends and D or L forms follow the SMILES beside them.

Assays:
[1] = tested on: methicillin resistant Staphylococcus aureus (MRSA); test: microbe, parasite or virus in culture; conditions: 17 h
[2] = tested on: methicillin resistant Staphylococcus aureus (MRSA); conditions: for MIC: MRSA growth after 17 h at 37° C., LB medium, absorbance at 600 nm, triplicate

MIC [1] [µM]	SMILES	MIC [2] [µM]	improvement of the antimicrobial activity ([2]; MRSA MIC analysis, worded as 'even in comparison to' trimethoprim (TMP))	enhanced activity relative to the wild type plectasin ([2]; MRSA MIC, relative to wild type plectasin)
2 (≈ 0.581 µg/mL)	COc1cc(Cc2cnc(N)nc2N)cc(OC)c1OC [TMP, trimethoprim]	–	–	–
–	CC[C@H](C)[C@@H]1NC(=O)[C@H](CO)NC(=O)[C@H](CCCCN)NC(=O)[C@@H]2CSSC[C@@H](C(=O)N[C@@H](Cc3ccc(O)cc3)C(N)=O)NC(=O)[C@H](CCCCN)NC(=O)[C@@H]3CSSC[C@H](NC(=O)[C@H](CCC(N)=O)NC(=O)[C@H](CCSC)NC(=O)[C@H](CC(=O)O)NC(=O)[C@H](CC(=O)O)NC(=O)[C@H](CCC(=O)O)NC(=O)[C@H](CC(=O)O)NC(=O)[C@H](Cc4c[nH]c5ccccc45)NC(=O)[C@@H]4CCCN4C(=O)CNC(=O)[C@H](CC(N)=O)NC(=O)[C@@H](NC(=O)CNC(=O)[C@H](Cc4ccccc4)NC(=O)CN)CSSC[C@H](NC(=O)[C@H](Cc4ccc(O)cc4)NC(=O)CNC(=O)CNC(=O)[C@H](CCCCN)NC(=O)[C@H](Cc4ccc(O)cc4)NC(=O)CNC(=O)[C@H](CCCCN)NC1=O)C(=O)N[C@@H](C)C(=O)N[C@@H](CCCCN)C(=O)NCC(=O)NCC(=O)N[C@@H](Cc1ccccc1)C(=O)N[C@@H](C(C)C)C(=O)N3)C(=O)N[C@@H](Cc1c[nH]cn1)C(=O)N[C@@H](CC(N)=O)C(=O)N[C@@H](Cc1c[nH]cn1)C(=O)N2 [plectasin WT, plectasin, reference compound]	5 (≈ 22 µg/mL)	–	–
–	CC[C@H](C)[C@@H]1NC(=O)[C@H](CO)NC(=O)[C@H](CCCCN)NC(=O)[C@@H]2CSSC[C@@H](C(=O)N[C@@H](Cc3ccc(O)cc3)C(N)=O)NC(=O)[C@H](CCCCN)NC(=O)[C@@H]3CSSC[C@H](NC(=O)[C@H](CCC(N)=O)NC(=O)[C@H](C)NC(=O)[C@H](CC(=O)O)NC(=O)[C@H](CC(=O)O)NC(=O)[C@H](CCC(=O)O)NC(=O)[C@H](CC(=O)O)NC(=O)[C@H](Cc4c[nH]c5ccccc45)NC(=O)[C@@H]4CCCN4C(=O)CNC(=O)[C@H](CC(N)=O)NC(=O)[C@@H](NC(=O)CNC(=O)[C@H](Cc4ccccc4)NC(=O)CN)CSSC[C@H](NC(=O)[C@H](Cc4ccc(O)cc4)NC(=O)CNC(=O)CNC(=O)[C@H](CCCCN)NC(=O)[C@H](Cc4ccc(O)cc4)NC(=O)CNC(=O)[C@H](CCCCN)NC1=O)C(=O)N[C@@H](C)C(=O)N[C@@H](CCCCN)C(=O)NCC(=O)NCC(=O)N[C@@H](Cc1ccccc1)C(=O)N[C@@H](C(C)C)C(=O)N3)C(=O)N[C@@H](Cc1c[nH]cn1)C(=O)N[C@@H](CC(N)=O)C(=O)N[C@@H](Cc1c[nH]cn1)C(=O)N2 [plectasinMet13Ala] (H-GFGCNGPWDEDDAQCHNHCKSIKGYKGGYCAKGGFVCKCY-NH2; disulfide 4-30, 15-37, 19-39; N-terminus assumed)	1.25 (≈ 5.43 µg/mL)	four-fold	four-fold
